Where two headings read alike, the source gives them in different places.

Data set [1] concerns platelet aggregation induced by PAF. Put plainly: Test 1-Inhibition of platelet aggregation induced by PAF (C18-PAF, 15 nM). In kind it is cell-based, male New Zealand rabbits. The conditions noted are these: rabbit platelet rich plasma, 15 nM C18-PAF, read-out: IC50 (concentration of drug required to inhibit platelet aggregatory response by 50%). As to the method:
Test 1-Inhibition of platelet aggregation induced by PAF.
Platelet rich plasma (PRP) was prepared by centrifuging the blood at 250xg for 10 min. at 4° C. PRP was diluted with platelet-poor plasma (PPP) obtained by further centrifuging at 3000xg for 10 min. The platelet count was adjusted to 3×10^5 cells/mm^3.

Data set [2] relates to PAF-induced hypotension in normotensive rats. The experiment in a line: Test 2- Inhibition of PAF-induced hypotension in normotensive rats. The class given is in vivo, Male Sprague-Dawley rats. The conditions noted are these: intravenous, 3 min. before PAF (0.5 μg/Kg); for ED50: Rattus norvegicus, 0.05 h, read-out: ID50 (dose of test compound required to inhibit hypotension by 50%). On the procedure:
Test 2- Inhibition of PAF-induced hypotension in normotensive rats.
Male Sprague-Dawley rats, weighing 180-220 g, were anesthetized with sodium pentobarbital (50 mg/Kg i.p.). Blood pressure was recorded from the left carotid artery using a Statham pressure transducer coupled to a Beckman R611 recorder. Right and left femoral veins were catheterized to inject test compounds and PAF (0.5 μg/Kg). Test compounds were administered by intravenous injection (1 mL/Kg, dissolved in saline) 3 min. before PAF.
Blood pressure was monitored and percent inhibition of PAF-induced hypotension with respect to controls was calculated.

The test system of a further data set is ulcerative colitis. The conditions noted are these: cited from earlier work; for active moiety in ulcerative colitis: Azad Khan et al., Lancet 1977.
For data set [3] the following is noted: after absorption from the colon; cited from earlier work.

Regarding `CCOC(=O)[C@H](CC(C)C)N(Cc1ccc(N)cc1)S(=O)(=O)c1ccc(Cn2c(C)nc3cnccc32)cc1` [F, N-(4-Aminobenzyl)-N-[4-(1H-2-methylimidazo[4,5-c]pyridylmethyl)-phenylsulfonyl]-L-leucine ethyl ester], the IC50 in data set [1] (Oryctolagus cuniculus) was found to be 12 nM. Also, in data set [2], the ED50 came out at 0.033 mg/kg.

With `CCOC(=O)[C@H](CC(C)C)N(C(=O)c1ccc(N)cc1)S(=O)(=O)c1ccc(Cn2c(C)nc3cnccc32)cc1` [E, N-(4-Aminobenzoyl)-N-[4-(1H-2-methylimidazo[4,5-c]pyridylmethyl)phenylsulfonyl]-L-leucine ethyl ester], the IC50 in data set [1] (Oryctolagus cuniculus) came to 30 nM. Moreover, the ED50 in data set [2] is 0.15 mg/kg.

With `Cc1nc2cnccc2n1CC1CCN(C(=O)CC(C)(C)c2ccc(N)cc2)CC1` [A, 1-[[1-[3-(4-Aminophenyl)-3-methylbutanoyl]-4-piperidyl]methyl]-1H-2-methylimidazo[4,5-c]pyridine], the IC50 in data set [1] (Oryctolagus cuniculus) came out at 19 nM. In data set [2], the ED50 amounted to 0.099 mg/kg.

`Nc1ccc(O)c(C(=O)O)c1` [Compound 5-ASA, 5-aminosalicylic acid]: in the data set on ulcerative colitis, the “active moiety in ulcerative colitis” value is recorded as “in ulcerative colitis the active moiety is 5-ASA”.

For the molecule `CCOC[C@H](CC(C)C)N(Cc1ccc(N)cc1)S(=O)(=O)c1ccc(Cn2c(C)nc3cnccc32)cc1` [G, N-(4-Aminobenzyl)-N-[(S)-1-isobutyl-2-ethoxyethyl]-4-(1H-2-methylimidazo[4,5-c]pyridylmethyl)phenylsulfonamide], the IC50 in data set [1] (Oryctolagus cuniculus) was found to be 16 nM. Besides, the ED50 in data set [2] turned out to be 0.14 mg/kg.

On to `Cc1nc2cnccc2n1CC1CCN(C(=O)CN(c2ccccc2)S(=O)(=O)c2ccc(N)cc2)CC1` [D], for which the IC50 in data set [1] (Oryctolagus cuniculus) turned out to be 75 nM. Besides, the ED50 in data set [2] is 0.088 mg/kg.

For `Nc1ccc(S(=O)(=O)Nc2ccccn2)cc1` [Sulfapyridine, sulfapyridine], the “active moiety in ulcerative colitis” value in the data set with ulcerative colitis is listed as “acts only as a carrier”. Besides, the “side effects of sulfasalazine ascribed to the moiety” value in the data set on ulcerative colitis (Das et al., New Engl. J. Med. 1973) was “Most of the side effects of sulfasalazine have been ascribed to the sulfapyridine moiety”. In addition, the metabolism and excretion result in data set [3] is “metabolised and excreted in the urine”.

For the molecule `Cc1nc2cnccc2n1CC1CCN(C(=O)/C=C(/c2ccccc2)c2ccc(N)cc2)CC1` [B, cis-1-[[1-[3-(4-Aminophenyl)-3-phenylpropenoyl]-4-piperidyl]methyl]-1H-2-methylimidazo[4,5-c]pyridine], the IC50 in data set [1] turned out to be 18 nM. Also, the “ID50 (dose of test compound required to inhibit hypotension by 50%)” value in data set [2] was determined as 0.029 mg/kg.

Regarding `Cc1nc2cnccc2n1CC1CCN(C(=O)/C=C(\c2ccccc2)c2ccc(N)cc2)CC1` [C, trans-1-[[1-[3-(4-Aminophenyl)-3-phenylpropenoyl]-4-piperidyl]methyl]-1H-2-methylimidazo[4,5-c]pyridine], the IC50 in data set [1] is 5 nM. The “ID50 (dose of test compound required to inhibit hypotension by 50%)” value in data set [2] fell in the range of 0.01 to 0.025 mg/kg.

Values taken from US5747477A, “Azo derivatives of 5-aminosalicylic acid” (priority 1995, dated 1998).
